This assay concerns the target T1, TLR7/NFKb HEK cells (Homo sapiens, UniProt Q9NYK1).
T1 construct: expressed in transfected cells; host or cells: HEK cells (TLR7/NFKb reporter line)
T1 sequence (Q9NYK1 27-1049): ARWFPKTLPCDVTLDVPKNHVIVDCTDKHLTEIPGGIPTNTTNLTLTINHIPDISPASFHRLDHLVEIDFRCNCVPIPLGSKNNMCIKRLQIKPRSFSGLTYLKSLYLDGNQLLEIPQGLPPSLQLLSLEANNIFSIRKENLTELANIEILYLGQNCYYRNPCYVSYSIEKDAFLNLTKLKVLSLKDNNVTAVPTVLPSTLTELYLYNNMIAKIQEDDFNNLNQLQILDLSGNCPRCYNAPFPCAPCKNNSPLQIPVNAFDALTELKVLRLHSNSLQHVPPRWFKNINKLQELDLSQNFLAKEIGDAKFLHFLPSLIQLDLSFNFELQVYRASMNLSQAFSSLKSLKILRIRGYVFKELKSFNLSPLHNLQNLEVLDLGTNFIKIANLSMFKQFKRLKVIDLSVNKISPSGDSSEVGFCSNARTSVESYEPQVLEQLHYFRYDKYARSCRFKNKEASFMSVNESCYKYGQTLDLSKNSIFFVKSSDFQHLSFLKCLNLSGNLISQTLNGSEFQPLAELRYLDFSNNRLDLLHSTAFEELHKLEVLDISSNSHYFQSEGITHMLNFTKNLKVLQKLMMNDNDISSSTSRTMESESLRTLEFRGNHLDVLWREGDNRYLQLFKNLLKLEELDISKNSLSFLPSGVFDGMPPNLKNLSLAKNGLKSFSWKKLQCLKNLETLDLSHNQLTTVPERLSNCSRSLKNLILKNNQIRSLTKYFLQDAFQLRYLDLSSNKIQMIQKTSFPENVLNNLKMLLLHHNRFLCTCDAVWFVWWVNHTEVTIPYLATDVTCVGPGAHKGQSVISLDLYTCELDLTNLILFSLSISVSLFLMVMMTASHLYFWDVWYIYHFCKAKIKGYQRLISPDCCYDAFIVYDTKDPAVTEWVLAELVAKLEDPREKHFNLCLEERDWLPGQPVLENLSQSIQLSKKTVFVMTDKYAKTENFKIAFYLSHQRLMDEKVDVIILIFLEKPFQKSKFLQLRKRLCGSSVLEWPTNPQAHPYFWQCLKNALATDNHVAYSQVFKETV
The assay can be described thus: HEK Cell Assay (TLR7/NFKb reporter, Steady-Glo luciferase readout). As to conditions: 30 min compound preincubation, then R*48 agonist for 5 hours, read-out: Potency. It counts as cell-based. As for the experimental part:
Example 142: HEK Cell Assay
Into 384 CulturePlates (Corning 3707) was placed 5000 c/w of TLR7/NFKb HEK cells in 30 uL DMEM without Phenil red (gibco #31053) and 10% i.a. FCS and 2 mM L-ZGLutamin. The cells were incubated for 24 h at 37° C., 10% carbon dioxide and 90% relative humidity. 3 uL of controls, standards, and compounds were dispensed into wells, incubated for 30 min then 3 uL of R*48 agonist in 20 mM Hepes was added. After incubation for 5 hours, they were allowed to stand at room temperature for 15 min. To this was added 10 uL of Steady-Glo substrate reagent and shake assay plate for 5 min at 1500 rpm. The assay plate was allowed to sit for 30 min at room temperature and then the plate was read on EnVision.

Structures can show the parent of a compound that is named as a salt.

For `C[C@H]1C[C@@H](NC(=O)CN(C)C)CN(c2ccc(F)c3ncccc23)C1` [Compound 469, 2-Dimethylamino-N-[(3R,5S)-1-(8-fluoro-quinolin-5-yl)-5-methyl-piperidin-3-yl]-acetamide], the IC50 lay within 1000 to 10000 nM.
As to `C[C@H]1C[C@@H](NC(=O)CN2CC(O)C2)CN(c2ccc(C(F)F)c3nccnc23)C1` [Compound 320, N-[(3R,5S)-1-[8-(difluoromethyl)quinoxalin-5-yl]-5-methylpiperidin-3-yl]-2-(3-hydroxyazetidin-1-yl)acetamide], the IC50 fell in the range of 1000 to 10000 nM.
The figure for `C[C@H]1C[C@@H](NC(=O)CC(C)(C)C)CN(c2ccc(C#N)c3nccnc23)C1` [Compound 40, N-((3R,5S)-1-(8-cyanoquinoxalin-5-yl)-5-methylpiperidin-3-yl)-3,3-dimethylbutanamide] is under 1000 nM; for `CC1(C)C[C@@H](NC(=O)C(N)C(F)(F)F)CN(c2ccc(C#N)c3nccnc23)C1` (single isomer, unassigned) [Compound 211] it is 1000 to 10000 nM.
Consider `Cc1ncc(N2C[C@@H](C)C[C@@H](NC(=O)[C@H](O)C3CC3)C2)c2cccnc12` [Compound 558, (R)-2-Cyclopropyl-2-hydroxy-N-[(3R,5S)-5-methyl-1-(8-methyl-[1,7]naphthyridin-5-yl)-piperidin-3-yl]-acetamide], for which the IC50 is 1000 to 10000 nM.
As for `C[C@H]1C[C@@H](N)CN(c2ncc(F)c3nccnc23)C1` [Compound 459, (3R,5S)-1-(8-Fluoro-pyrido[3,4-b]pyrazin-5-yl)-5-methyl-piperidin-3-ylamine hydrochloride], the IC50 is 1000 to 10000 nM.
The value for `CN1CCN(CC(=O)N[C@H]2C[C@@H](C(F)(F)F)CN(c3ccc(C#N)c4nccnc34)C2)CC1` (relative stereo) [Compound 229, cis-N-[1-(8-cyanoquinoxalin-5-yl)-5-(trifluoromethyl)piperidin-3-yl]-2-(4-methylpiperazin-1-yl)acetamide] was under 1000 nM.
The value for `CC(C)[C@H](O)C(=O)NC1CC(C(F)(F)F)CN(c2ccc(C#N)c3ncccc23)C1` (single isomer, unassigned) [Compound 430] was under 1000 nM; that for `C[C@H]1C[C@@H](NC(=O)CN2CCCN(C)CC2)CN(c2ccc(C#N)c3nccnc23)C1` [Compound 276, N-[(3R,5S)-1-(8-cyanoquinoxalin-5-yl)-5-methylpiperidin-3-yl]-2-(4-methyl-1,4-diazepan-1-yl)acetamide] was under 1000 nM; that for `CN(C)CCNC(=O)C1CCN(c2ccc(C#N)c3ncccc23)CC1` [Compound 415, 1-(8-Cyano-quinolin-5-yl)-piperidine-4-carboxylic Acid (2-dimethylamino-ethyl)-amide] was under 1000 nM.
The value for `CC1(C)C[C@@H](N)CN(c2ccnc3nccnc23)C1` [Compound 80, (R)-5,5-dimethyl-1-(pyrido[2,3-b]pyrazin-8-yl)piperidin-3-amine] was 1000 to 10000 nM; that for `C[C@H]1C[C@@H](NC2COC2)CN(c2ccc(C#N)c3nccnc23)C1` [Compound 137, 8-[(3S,5R)-3-methyl-5-[(oxetan-3-yl)amino]piperidin-1-yl]quinoxaline-5-carbonitrile] was under 1000 nM; that for `C[C@H]1C[C@@H](NC(=O)CC2CCN(C)CC2)CN(c2ccc(C(F)(F)F)c3nccnc23)C1` [Compound 253, N-[(3R,5S)-5-methyl-1-[8-(trifluoromethyl)quinoxalin-5-yl]piperidin-3-yl]-2-(1-methylpiperidin-4-yl)acetamide] was under 1000 nM.
For the compound `CCC(C)C(=O)N[C@@H]1C[C@H](C)CN(c2ccc(C#N)c3nccnc23)C1` (single isomer, unassigned) [Compound 154], the IC50 is under 1000 nM.
The value for `C[C@H]1C[C@@H](NC(=O)CNS(C)(=O)=O)CN(c2ccnc3nccnc23)C1` [Compound 141, 2-methanesulfonamido-N-[(3R,5S)-5-methyl-1-[pyrido[2,3-b]pyrazin-8-yl]piperidin-3-yl]acetamide] was over 10000 nM; that for `C[C@H]1C[C@@H](NC(=O)CN2CCOCC2)CN(c2ccc(Cl)c3ncccc23)C1` [Compound 262, N-[(3R,5S)-1-(8-chloroquinolin-5-yl)-5-methylpiperidin-3-yl]-2-(morpholin-4-yl)acetamide] was under 1000 nM; that for `C[C@@H]1CN(c2ccc(C#N)c3nccnc23)C[C@H](CN2CCC(N3CCCCC3)CC2)O1` [Compound 59, 8-((2S,6R)-2-(1,4′-bipiperidin-1′-ylmethyl)-6-methylmorpholino)quinoxaline-5-carbonitrile] was under 1000 nM.
The value for `C[C@H]1C[C@@H](NC(=O)CN2CC(N)C2)CN(c2ccc(C(F)F)c3ncccc23)C1` [Compound 304, 2-(3-aminoazetidin-1-yl)-N-[(3R,5S)-1-[8-(difluoromethyl)quinolin-5-yl]-5-methylpiperidin-3-yl]acetamide] was under 1000 nM; that for `C[C@H]1C[C@@H](NC(=O)CC2CC2(F)F)CN(c2ccc(C(F)F)c3nccnc23)C1` (stereo partly drawn) [Compound 322, 2-(2,2-difluorocyclopropyl)-N-[(3R,5S)-1-[8-(difluoromethyl)quinoxalin-5-yl]-5-methylpiperidin-3-yl]acetamide] was 1000 to 10000 nM.
Consider `CCN(CC)CCNCC1CCN(c2ccnc3ccc(C(F)(F)F)cc23)CC1` [Compound 377, N,N-Diethyl-N′-[1-(6-trifluoromethyl-quinolin-4-yl)-piperidin-4-ylmethyl]-ethane-1,2-diamine], for which the IC50 lay within 1000 to 10000 nM.
The figure for `CC(C)[C@@H](O)C(=O)N[C@@H]1C[C@H](C)CN(c2ccnc3nccnc23)C1` [Compound 23, (R)-2-hydroxy-3-methyl-N-((3R,5S)-5-methyl-1-(pyrido[2,3-b]pyrazin-8-yl)piperidin-3-yl)butanamide] is over 10000 nM.
The value for `C[C@H]1C[C@@H](NC(=O)CN(C)C)CN(c2c(F)cc(C#N)c3nccnc23)C1` [Compound 347, N-[(3R,5S)-1-(8-cyano-6-fluoroquinoxalin-5-yl)-5-methylpiperidin-3-yl]-2-(dimethylamino)acetamide] was 1000 to 10000 nM; that for `C[C@H]1C[C@@H](NC(C)(C)CO)CN(c2ccc(C(F)(F)F)c3ncccc23)C1` [Compound 242, 2-methyl-2-[[(3R,5S)-5-methyl-1-[8-(trifluoromethyl)quinolin-5-yl]piperidin-3-yl]amino]propan-1-ol] was 1000 to 10000 nM.
The value for `C[C@H]1C[C@@H](NC(=O)CN2CCCN(C)CC2)CN(c2ccc(C(F)F)c3ncccc23)C1` [Compound 314, N-[(3R,5S)-1-[8-(difluoromethyl)quinolin-5-yl]-5-methylpiperidin-3-yl]-2-(4-methyl-1,4-diazepan-1-yl)acetamide] was under 1000 nM; that for `COc1ccc(N2C[C@@H](C)C[C@@H](NC(=O)CN(C)C)C2)c2cccnc12` [Compound 193, 2-(dimethylamino)-N-[(3R,5S)-1-(8-methoxyquinolin-5-yl)-5-methylpiperidin-3-yl]acetamide] was 1000 to 10000 nM; that for `C[C@H]1C[C@@H](NC2CCN(C)C2=O)CN(c2ccc(C#N)c3nccnc23)C1` (single isomer, unassigned) [Compound 124] was under 1000 nM.
As to `CC(CN(C)C)NC(=O)C1CCN(c2ccc(C#N)c3ncccc23)CC1` (stereo not drawn) [Compound 420, 1-(8-Cyano-quinolin-5-yl)-piperidine-4-carboxylic Acid (2-dimethylamino-1-methyl-ethyl)-amide], the IC50 is under 1000 nM.
In the case of `C[C@@H]1CN(c2ccnc3nccnc23)C[C@H](C(=O)N2CC(N)C2)O1` [Compound 63, (3-aminoazetidin-1-yl)((2R,6R)-6-methyl-4-(pyrido[2,3-b]pyrazin-8-yl)morpholin-2-yl)methanone], the IC50 is over 10000 nM.
With `COc1ccc(N2C[C@@H](C)C[C@@H](NC(=O)C(N)C(F)(F)F)C2)c2cccnc12` (single isomer, unassigned) [Compound 191], the IC50 was 1000 to 10000 nM.
As to `CN(C)CCNC(=O)N1CCN(c2ccc(C#N)c3nccnc23)CC1` [Compound 463, 4-(8-Cyano-quinoxalin-5-yl)-piperazine-1-carboxylic Acid (2-dimethylamino-ethyl)-amide], the IC50 is under 1000 nM.

The record behind these values is patent US10947213B1 (Merck Patent GmbH, priority 2015, dated 2021).
